Here are results for two compounds from patent publication US6277835A, “Method of tumor treatment” (priority 2000, dated 2001).

Series [1] concerns kidney (blood urea nitrogen). Kind of series: Serum BUN assay. Conditions: day six. The class given is in vivo, C3H mice. From the text:
No anticoagulants were used.

Series [2] relates to peripheral white cell counts (bone marrow). Kind of series: Peripheral white cell counts. Conditions: day 3; tirapazamine […]; cisplatin 10, 14 and 18 mg/kg. As to the method:
Blood samples were taken from tail veins or by cardiac puncture. No anticoagulants were used. Peripheral white cell counts for individual mice were determined from 20 μl whole blood diluted in 0.280 ml 3% acetic acid. For serum BUN assays, blood from two mice was pooled, coagulated, vortexed, and centrifuged at 830 g for 15 minutes. After the serum was aspirated, BUN values were determined by a commercial clinical veterinary laboratory. Survival to 30 days was also recorded in another experiment.

The test system of series [3] is FSaIIC Murine Fibrosarcoma. Conditions: cited from earlier work.
Series [4] relates to RIF-1 cells. Kind of series: In vitro RIF-1 clonogenic cell survival under hypoxic conditions. Conditions: Mus musculus, RIF-1, 1 h, read-out: cell survival. The class given is cell-based.
Protocol: (§1) For the studies on cells in vitro, RIF-1 cells were seeded into 60 mm glass petri dishes in Waymouth's medium supplemented with 15% fetal bovine serum at a concentration of 2×10^4 cells per dish. The experiments were performed 4 to 5 days later when there were approximately 10^6 cell per dish at the time of treatment. The growth medium was then replaced with 2 ml of medium without serum containing tirapazamine at a concentration of either 2 or 4 μg/ml. […] To achieve hypoxia, the dishes were loaded into specially fabricated, prewarmed aluminum gassing chambers which were placed in a shaking table and connected to a gassing manifold comprising a vacuum outlet line and inlet lines for air or nitrogen (+5% CO^2). […] After gassing, the chambers were sealed and incubated for one hour at 37 C.
Series [5] relates to RIF-1 cells.
Protocol: as §1

As for `N.N.[Cl][Pt][Cl]` [cisplatin], the BUN level result in series [1] (10 mg/kg cisplatin alone, similar to untreated) is given as “approximately 30 mg/dl”; in series [1] (14 mg/kg cisplatin alone, similar to untreated), “approximately 30 mg/dl”; in series [1] (18 mg/kg cisplatin alone), “about 80 mg/dl”. In series [2], the leukopenia entry is given as “mild leukopenia”.
Turning to `Nc1n[n+]([O-])c2ccccc2[n+]1[O-]` [tirapazamine, 3-amino-1,2,4-benzotriazine 1,4-dioxide], in series [3] (SR 4233 just before single-dose carmustine), the “effect on tumor cells with carmustine” value is given as “marked dose enhancement leading to synergistic cytotoxic effects on tumor cells”. Moreover, the “effect on tumor cells with cyclophosphamide” value in series [3] (SR 4233 just before single-dose cyclophosphamide) was “marked dose enhancement leading to synergistic cytotoxic effects on tumor cells”. The “effect on tumor cells with melphalan” value in series [3] (SR 4233 just before single-dose melphalan) was “marked dose enhancement leading to synergistic cytotoxic effects on tumor cells”. Besides, the effect with cisplatin result in series [3] (SR 4233 just prior to single-dose cisplatin) is “additive effect, except at the highest dose level of cisplatin”. In the series with RIF-1 cells [4], the viability at 2 µg/mL came out at 30% and the viability at 4 µg/mL turned out to be 0.9%. Besides, the “cytotoxicity under aerobic conditions” value in the series with RIF-1 cells [5] is given as “no cytotoxicity”.
